{"source": "PubChem BioAssay AID2060487", "about": "(Molecular Pharmacology Branch, DTP, NCI, 2025)", "tested_on": "997537-175-T-J1-PDC complex spheroid viability", "assay": "Anticancer human tumor 997537-175-T-J1-PDC patient-derived colon adenocarcinoma cell line growth inhibition [GQUAD]", "details": "for pIC50: curve of first compound; for viability, T/C: stronger effect = lower value", "summary_of_the_method": "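Tumor cells were grown as complex spheroids with HUVEC endothelial cells and mesenchymal stem cells as stroma. G-quadruplex stabilizers were combined with targeted agents over half-log dilutions from near the clinical Cmax, or from 10 microM.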", "key": {"[1]": {"details": "second compound 0.0316 µM, first compound 0.0316 µM"}, "[2]": {"details": "second compound 0.0316 µM, first compound 0.1 µM"}, "[3]": {"details": "second compound 0.0316 µM, first compound 0.316 µM"}, "[4]": {"details": "second compound 0.0316 µM, first compound 1 µM"}, "[5]": {"details": "second compound 0.0316 µM, first compound 3.16 µM"}, "[6]": {"details": "second compound 0.0316 µM, first compound 10 µM"}, "[7]": {"details": "second compound 0.1 µM, first compound 0.0316 µM"}, "[8]": {"details": "second compound 0.1 µM, first compound 0.1 µM"}, "[9]": {"details": "second compound 0.1 µM, first compound 0.316 µM"}, "[10]": {"details": "second compound 0.1 µM, first compound 1 µM"}, "[11]": {"details": "second compound 0.1 µM, first compound 3.16 µM"}, "[12]": {"details": "second compound 0.1 µM, first compound 10 µM"}, "[13]": {"details": "second compound 0.316 µM, first compound 0.0316 µM"}, "[14]": {"details": "second compound 0.316 µM, first compound 0.1 µM"}, "[15]": {"details": "second compound 0.316 µM, first compound 0.316 µM"}, "[16]": {"details": "second compound 0.316 µM, first compound 1 µM"}, "[17]": {"details": "second compound 0.316 µM, first compound 3.16 µM"}, "[18]": {"details": "second compound 0.316 µM, first compound 10 µM"}, "[19]": {"details": "second compound 1 µM, first compound 0.0316 µM"}, "[20]": {"details": "second compound 1 µM, first compound 0.1 µM"}, "[21]": {"details": "second compound 1 µM, first compound 0.316 µM"}, "[22]": {"details": "second compound 1 µM, first compound 1 µM"}, "[23]": {"details": "second compound 1 µM, first compound 3.16 µM"}, "[24]": {"details": "second compound 1 µM, first compound 10 µM"}, "[25]": {"details": "second compound 3.16 µM, first compound 0.0316 µM"}, "[26]": {"details": "second compound 3.16 µM, first compound 0.1 µM"}, "[27]": {"details": "second compound 3.16 µM, first compound 0.316 µM"}, "[28]": {"details": "second compound 3.16 µM, first compound 1 µM"}, "[29]": {"details": "second compound 3.16 µM, first compound 3.16 µM"}, "[30]": {"details": "second compound 3.16 µM, first compound 10 µM"}, "[31]": {"details": "second compound 10 µM, first compound 0.0316 µM"}, "[32]": {"details": "second compound 10 µM, first compound 0.1 µM"}, "[33]": {"details": "second compound 10 µM, first compound 0.316 µM"}, "[34]": {"details": "second compound 10 µM, first compound 1 µM"}, "[35]": {"details": "second compound 10 µM, first compound 3.16 µM"}, "[36]": {"details": "second compound 10 µM, first compound 10 µM"}}, "note": "pIC50: −log10 of the molar value.", "data": [{"compound": "CC(=O)O[C@H]1C(=O)[C@@]2(C)[C@H]([C@H](OC(=O)c3ccccc3)[C@]3(O)C[C@H](OC(=O)[C@H](O)[C@@H](NC(=O)c4ccccc4)c4ccccc4)C(C)=C1C3(C)C)[C@]1(OC(C)=O)CO[C@@H]1C[C@@H]2O", "note": "+ Cc1[nH]c2ccc(F)cc2c1-c1nc2c3cccnc3c3ncccc3c2[nH]1;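 also: spheroids exposed to the agents for 7 days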;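 as to viability, T/C: 100% = DMSO vehicle control viability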", "values": [{"measurement": "pIC50", "setting": "second compound 0.0316 µM", "value": 5.55}, {"measurement": "pIC50", "setting": "second compound 0.1 µM", "value": 5.39}, {"measurement": "pIC50", "setting": "second compound 0.316 µM", "value": 5.35}, {"measurement": "pIC50", "setting": "second compound 1 µM", "value": 5.44}, {"measurement": "pIC50", "setting": "second compound 3.16 µM", "value": 5.66}, {"measurement": "pIC50", "setting": "second compound 10 µM", "value": 5.71}, {"measurement": "viability, T/C", "setting": "[1]", "value": 97.5, "unit": "%"}, {"measurement": "viability, T/C", "setting": "[2]", "value": 93.3, "unit": "%"}, {"measurement": "viability, T/C", "setting": "[3]", "value": 80.5, "unit": "%"}, {"measurement": "viability, T/C", "setting": "[4]", "value": 92.1, "unit": "%"}, {"measurement": "viability, T/C", "setting": "[5]", "value": 45.2, "unit": "%"}, {"measurement": "viability, T/C", "setting": "[6]", "value": 0.33, "unit": "%"}, {"measurement": "viability, T/C", "setting": "[7]", "value": 102, "unit": "%"}, {"measurement": "viability, T/C", "setting": "[8]", "value": 106, "unit": "%"}, {"measurement": "viability, T/C", "setting": "[9]", "value": 86.6, "unit": "%"}, {"measurement": "viability, T/C", "setting": "[10]", "value": 90.9, "unit": "%"}, {"measurement": "viability, T/C", "setting": "[11]", "value": 65.6, "unit": "%"}, {"measurement": "viability, T/C", "setting": "[12]", "value": 0.32, "unit": "%"}, {"measurement": "viability, T/C", "setting": "[13]", "value": 113, "unit": "%"}, {"measurement": "viability, T/C", "setting": "[14]", "value": 91, "unit": "%"}, {"measurement": "viability, T/C", "setting": "[15]", "value": 85.7, "unit": "%"}, {"measurement": "viability, T/C", "setting": "[16]", "value": 87.7, "unit": "%"}, {"measurement": "viability, T/C", "setting": "[17]", "value": 75.5, "unit": "%"}, {"measurement": "viability, T/C", "setting": "[18]", "value": 0.3, "unit": "%"}, {"measurement": "viability, T/C", "setting": "[19]", "value": 94.1, "unit": "%"}, {"measurement": "viability, T/C", "setting": "[20]", "value": 93.3, "unit": "%"}, {"measurement": "viability, T/C", "setting": "[21]", "value": 96.2, "unit": "%"}, {"measurement": "viability, T/C", "setting": "[22]", "value": 89.8, "unit": "%"}, {"measurement": "viability, T/C", "setting": "[23]", "value": 56.8, "unit": "%"}, {"measurement": "viability, T/C", "setting": "[24]", "value": 0.2, "unit": "%"}, {"measurement": "viability, T/C", "setting": "[25]", "value": 83.7, "unit": "%"}, {"measurement": "viability, T/C", "setting": "[26]", "value": 93.3, "unit": "%"}, {"measurement": "viability, T/C", "setting": "[27]", "value": 96.7, "unit": "%"}, {"measurement": "viability, T/C", "setting": "[28]", "value": 84.8, "unit": "%"}, {"measurement": "viability, T/C", "setting": "[29]", "value": 33.4, "unit": "%"}, {"measurement": "viability, T/C", "setting": "[30]", "value": 0.38, "unit": "%"}, {"measurement": "viability, T/C", "setting": "[31]", "value": 78.5, "unit": "%"}, {"measurement": "viability, T/C", "setting": "[32]", "value": 90.1, "unit": "%"}, {"measurement": "viability, T/C", "setting": "[33]", "value": 77.2, "unit": "%"}, {"measurement": "viability, T/C", "setting": "[34]", "value": 78, "unit": "%"}, {"measurement": "viability, T/C", "setting": "[35]", "value": 30.7, "unit": "%"}, {"measurement": "viability, T/C", "setting": "[36]", "value": 0.47, "unit": "%"}]}, {"compound": "CC(C)(O)C1CCC(Nc2ccc3ncc(-c4cccc(C(F)(F)F)c4)n3n2)CC1", "note": "(centres undefined) + Cc1cnc(CNC(=O)c2c(=O)c3ccc(N4CCCN(C)CC4)nc3n3c2sc2ccccc23)cn1", "values": [{"measurement": "pIC50", "setting": "second compound 0.0316 µM", "value": 5.95}, {"measurement": "pIC50", "setting": "second compound 0.1 µM", "value": 6.05}, {"measurement": "pIC50", "setting": "second compound 0.316 µM", "value": 5.86}, {"measurement": "pIC50", "setting": "second compound 1 µM", "value": 5.76}, {"measurement": "pIC50", "setting": "second compound 3.16 µM", "value": 5.82}, {"measurement": "pIC50", "setting": "second compound 10 µM", "value": 5.80}, {"measurement": "viability, T/C", "setting": "[1]", "value": 90.1, "unit": "%"}, {"measurement": "viability, T/C", "setting": "[2]", "value": 66.9, "unit": "%"}, {"measurement": "viability, T/C", "setting": "[3]", "value": 88.4, "unit": "%"}, {"measurement": "viability, T/C", "setting": "[4]", "value": 52.1, "unit": "%"}, {"measurement": "viability, T/C", "setting": "[5]", "value": 32.2, "unit": "%"}, {"measurement": "viability, T/C", "setting": "[6]", "value": 30.2, "unit": "%"}, {"measurement": "viability, T/C", "setting": "[7]", "value": 87.6, "unit": "%"}, {"measurement": "viability, T/C", "setting": "[8]", "value": 80.2, "unit": "%"}, {"measurement": "viability, T/C", "setting": "[9]", "value": 73.4, "unit": "%"}, {"measurement": "viability, T/C", "setting": "[10]", "value": 46.9, "unit": "%"}, {"measurement": "viability, T/C", "setting": "[11]", "value": 36.7, "unit": "%"}, {"measurement": "viability, T/C", "setting": "[12]", "value": 33.7, "unit": "%"}, {"measurement": "viability, T/C", "setting": "[13]", "value": 98.1, "unit": "%"}, {"measurement": "viability, T/C", "setting": "[14]", "value": 81.1, "unit": "%"}, {"measurement": "viability, T/C", "setting": "[15]", "value": 80.5, "unit": "%"}, {"measurement": "viability, T/C", "setting": "[16]", "value": 57.2, "unit": "%"}, {"measurement": "viability, T/C", "setting": "[17]", "value": 31.7, "unit": "%"}, {"measurement": "viability, T/C", "setting": "[18]", "value": 36.5, "unit": "%"}, {"measurement": "viability, T/C", "setting": "[19]", "value": 69.9, "unit": "%"}, {"measurement": "viability, T/C", "setting": "[20]", "value": 101, "unit": "%"}, {"measurement": "viability, T/C", "setting": "[21]", "value": 91.4, "unit": "%"}, {"measurement": "viability, T/C", "setting": "[22]", "value": 64.5, "unit": "%"}, {"measurement": "viability, T/C", "setting": "[23]", "value": 35.4, "unit": "%"}, {"measurement": "viability, T/C", "setting": "[24]", "value": 27, "unit": "%"}, {"measurement": "viability, T/C", "setting": "[25]", "value": 92.5, "unit": "%"}, {"measurement": "viability, T/C", "setting": "[26]", "value": 84.4, "unit": "%"}, {"measurement": "viability, T/C", "setting": "[27]", "value": 96.3, "unit": "%"}, {"measurement": "viability, T/C", "setting": "[28]", "value": 65.4, "unit": "%"}, {"measurement": "viability, T/C", "setting": "[29]", "value": 20.1, "unit": "%"}, {"measurement": "viability, T/C", "setting": "[30]", "value": 23.2, "unit": "%"}, {"measurement": "viability, T/C", "setting": "[31]", "value": 76.2, "unit": "%"}, {"measurement": "viability, T/C", "setting": "[32]", "value": 108, "unit": "%"}, {"measurement": "viability, T/C", "setting": "[33]", "value": 91.5, "unit": "%"}, {"measurement": "viability, T/C", "setting": "[34]", "value": 69.4, "unit": "%"}, {"measurement": "viability, T/C", "setting": "[35]", "value": 19.1, "unit": "%"}, {"measurement": "viability, T/C", "setting": "[36]", "value": 21.2, "unit": "%"}]}]}
